# Several values for one entry are separate records, joined by “and”; a condition that tells them apart may be missing. Equal entries are not always repeated. Where two headings read alike, the source gives them in different places.
# Legend:
# mmsadh [1] = assay type: cell-based, microorganisms shown in Table 1
# mmsadh [2] = assay: GFP reporter inserted at mmsadh position; assay type: cell-based, Pseudomonas denitrificans; settings: w 3-HP 25 mM
# From the text: The effect of the O1 and O2 operators on biosynthesis of the C4-LysR protein and the mmsadh expression was examined by using a green fluorescent protein (GFP) as a reporter (Table 2). In Table 2, the effect of the C4-LysR protein and the O1 and O2 operators on the expression of the C4-LysR and the mmsadh. The relative size of the GFP was shown relative to the wild type in the absence of 3-HP. the C4-LysR protein was either not present or was produced by a constitutive promoter, and a plasmid was prepared to control the expression of the GFP upon the existing promoter having the O1 and O2 operators. Then, the experiment was carried out by inserting the prepared plasmid into a host of P. denitrificans from which genes between the C4-LysR and the mmsadh was deleted. Accordingly, the expression of the GFP was suppressed by the C4-LysR protein itself. That is, when the C4-LysR is expressed, the GFP expression was reduced by more than 10-fold. In addition, the expression regulation was also constant regardless of the presence of 3-HP. In this regard, it was confirmed that the transcription of C4-LysR mRNA was negatively regulated by the C4-LysR protein. This experiment was repeated by using a promoter that randomized the O1 and O2 operators to eliminate the symmetrical dyad. As a result, in the case where the O1 or O2 operator site was randomized, the GFP expression was not regulated by the C4-LysR protein, referring that the C4-LysR protein in the P. denitrificans strain was negatively regulated by the strain itself.
# Meanwhile, the effect of the O1 and O2 operators on the mmsadh gene expression was examined in a similar manner. That is, the C4-LysR protein was constitutively expressed, and a plasmid was prepared so that GFP can be located after a promoter having O1 and O2 promoters. Here, an O1 or O2 operator was mutated so that the symmetrical dyad of an O1 or O2 site was randomized. As a result, when the O1 or O2 site was mutated, the phenomenon of up-regulation of transcription by 3-HP disappeared. That is, it means that the O1 and O2 operators are all essential sites for up-regulation of the expression by 3-HP.
smiles,measurement,setting,value
"O=C(O)CCO [3-HP, 3-hydroxypropionic acid]",Relative mRNA level mmsadh + 3-HP,mmsadh [1],5.21 and 5.19
same,Relative mRNA level mmsadh + 3-HP,"mmsadh [1]; Achromobacter denitrificans, + 3-HP",6.34
same,Relative mRNA level mmsadh + 3-HP,"mmsadh [1]; Acidovorax avenae subsp., + 3-HP",5.98
same,Relative mRNA level mmsadh + 3-HP,"mmsadh [1]; Acidovorax sp., + 3-HP",6.04
same,Relative mRNA level mmsadh + 3-HP,"mmsadh [1]; Acinetobacter baumannii, + 3-HP",5.76
same,Relative mRNA level mmsadh + 3-HP,"mmsadh [1]; Aeromonas hydrophilia, + 3-HP",6.14
same,Relative mRNA level mmsadh + 3-HP,"mmsadh [1]; Agrobacterium sp., + 3-HP",6.56
same,Relative mRNA level mmsadh + 3-HP,"mmsadh [1]; Alcaligenes faecalis, + 3-HP",5.73
same,Relative mRNA level mmsadh + 3-HP,"mmsadh [1]; Alcanivorax hongdengensis, + 3-HP",6.58
same,Relative mRNA level mmsadh + 3-HP,"mmsadh [1]; Alicychphilus denitrificans, + 3-HP",6.01
same,Relative mRNA level mmsadh + 3-HP,"mmsadh [1]; Alteromonas marina, + 3-HP",5.73
same,Relative mRNA level mmsadh + 3-HP,"mmsadh [1]; Amycolatopsis sp., + 3-HP",6.05
same,Relative mRNA level mmsadh + 3-HP,"mmsadh [1]; Anaeromyxobacter dehalogenans, + 3-HP",5.44
same,Relative mRNA level mmsadh + 3-HP,"mmsadh [1]; Azospirillum brasilensse, + 3-HP",6.05
same,Relative mRNA level mmsadh + 3-HP,"mmsadh [1]; Azotobacter vinelandii, + 3-HP",5.87
same,Relative mRNA level mmsadh + 3-HP,"mmsadh [1]; Beijerinckia indica, + 3-HP",5.01
same,Relative mRNA level mmsadh + 3-HP,"mmsadh [1]; Bordetella avium, + 3-HP",4.98
same,Relative mRNA level mmsadh + 3-HP,"mmsadh [1]; Bradyrhizobium japonicum, + 3-HP",5.49
same,Relative mRNA level mmsadh + 3-HP,"mmsadh [1]; Burkholderia ambifaria, + 3-HP",5.13
same,Relative mRNA level mmsadh + 3-HP,"mmsadh [1]; Castellaniella defragrans, + 3-HP",5.98
same,Relative mRNA level mmsadh + 3-HP,"mmsadh [1]; Catenulispora acidiphilia, + 3-HP",5.24
same,Relative mRNA level mmsadh + 3-HP,"mmsadh [1]; Caulobacter sp., + 3-HP",5.96
same,Relative mRNA level mmsadh + 3-HP,"mmsadh [1]; Chromobacterium violaceum, + 3-HP",6.31
same,Relative mRNA level mmsadh + 3-HP,"mmsadh [1]; Collimonas arenae, + 3-HP",5.87
same,Relative mRNA level mmsadh + 3-HP,"mmsadh [1]; Comamonas testosteroni, + 3-HP",4.96
same,Relative mRNA level mmsadh + 3-HP,"mmsadh [1]; Corynebacterium vitaeruminis, + 3-HP",5.89
same,Relative mRNA level mmsadh + 3-HP,"mmsadh [1]; Cupriavidus necator, + 3-HP",6.05
same,Relative mRNA level mmsadh + 3-HP,"mmsadh [1]; Curvibacter gracilus, + 3-HP",3.99
same,Relative mRNA level mmsadh + 3-HP,"mmsadh [1]; Delftia acidovorans, + 3-HP",4.03
same,Relative mRNA level mmsadh + 3-HP,"mmsadh [1]; Ferrimonas balearica, + 3-HP",5.17
same,Relative mRNA level mmsadh + 3-HP,"mmsadh [1]; Glaciecola nitratireducens, + 3-HP",4.81
same,Relative mRNA level mmsadh + 3-HP,"mmsadh [1]; Gordonia bronchialis, + 3-HP",5.21
same,Relative mRNA level mmsadh + 3-HP,"mmsadh [1]; Hahella chijuensis, + 3-HP",5.97
same,Relative mRNA level mmsadh + 3-HP,"mmsadh [1]; Halomonas elongata, + 3-HP",4.34
same,Relative mRNA level mmsadh + 3-HP,"mmsadh [1]; Hirschia litorea, + 3-HP",4.56
same,Relative mRNA level mmsadh + 3-HP,"mmsadh [1]; Idiomarina sp., + 3-HP",5.43
same,Relative mRNA level mmsadh + 3-HP,"mmsadh [1]; Janthinobacterium lividum, + 3-HP",5.01
same,Relative mRNA level mmsadh + 3-HP,"mmsadh [1]; Kitasatospora setae, + 3-HP",5.25
same,Relative mRNA level mmsadh + 3-HP,"mmsadh [1]; Kutzneria albida, + 3-HP",5.61
same,Relative mRNA level mmsadh + 3-HP,"mmsadh [1]; Methylobacterium sp., + 3-HP",598
same,Relative mRNA level mmsadh + 3-HP,"mmsadh [1]; Methylocystis sp., + 3-HP",4.91
same,Relative mRNA level mmsadh + 3-HP,"mmsadh [1]; Novosphingobium sp., + 3-HP",6.04
same,Relative mRNA level mmsadh + 3-HP,"mmsadh [1]; Oceanimonas smirnovii, + 3-HP",4.88
same,Relative mRNA level mmsadh + 3-HP,"mmsadh [1]; Paracoccus sp., + 3-HP",4.96
same,Relative mRNA level mmsadh + 3-HP,"mmsadh [1]; Parvibaculum lavamentivorans, + 3-HP",4.99
same,Relative mRNA level mmsadh + 3-HP,"mmsadh [1]; Phenylobacterium kunshanensis, + 3-HP",5.02
same,Relative mRNA level mmsadh + 3-HP,"mmsadh [1]; Photobacterium gaetbuleda, + 3-HP",5.06
same,Relative mRNA level mmsadh + 3-HP,"mmsadh [1]; Polynucleobacter necessarius asymbioticus, + 3-HP",5.37
same,Relative mRNA level mmsadh + 3-HP,"mmsadh [1]; Pseudoalteromonas carrgeenovora, + 3-HP",5.03
same,Relative mRNA level mmsadh + 3-HP,"mmsadh [1]; Pseudogulbenkiania sp., + 3-HP",5.36
same,Relative mRNA level mmsadh + 3-HP,"mmsadh [1]; Pseudomonas denitrificans ATCC13867, + 3-HP",5.43
same,Relative mRNA level mmsadh + 3-HP,"mmsadh [1]; Pseudomonas fluorescens, + 3-HP",4.70
same,Relative mRNA level mmsadh + 3-HP,"mmsadh [1]; Pseudomonas knackmussii, + 3-HP",5.96
same,Relative mRNA level mmsadh + 3-HP,"mmsadh [1]; Pseudomonas protegens, + 3-HP",5.01
same,Relative mRNA level mmsadh + 3-HP,"mmsadh [1]; Pseudoxanthomonas spadix, + 3-HP",4.96
same,Relative mRNA level mmsadh + 3-HP,"mmsadh [1]; Psychrobacter phenylpyruvicus, + 3-HP",5.03
same,Relative mRNA level mmsadh + 3-HP,"mmsadh [1]; Rhodomicrobium vannielli, + 3-HP",6.02
same,Relative mRNA level mmsadh + 3-HP,"mmsadh [1]; Segniliparus rotundus, + 3-HP",4.32
same,Relative mRNA level mmsadh + 3-HP,"mmsadh [1]; Shewanella oneidensis, + 3-HP",4.07
same,Relative mRNA level mmsadh + 3-HP,"mmsadh [1]; Simiduia agarovorans, + 3-HP",4.87
same,Relative mRNA level mmsadh + 3-HP,"mmsadh [1]; Sinorhizobium meliloti, + 3-HP",4.07
same,Relative mRNA level mmsadh + 3-HP,"mmsadh [1]; Sphingobium chlorophenolicum, + 3-HP",4.86
same,Relative mRNA level mmsadh + 3-HP,"mmsadh [1]; Sphingomonas wittichii, + 3-HP",6.42
same,Relative mRNA level mmsadh + 3-HP,"mmsadh [1]; Sphingopyxis alaskensis, + 3-HP",6.94
same,Relative mRNA level mmsadh + 3-HP,"mmsadh [1]; Stenotrophomonas maltophilia, + 3-HP",5.21
same,Relative mRNA level mmsadh + 3-HP,"mmsadh [1]; Streptomyces nodosus, + 3-HP",5.14
same,Relative mRNA level mmsadh + 3-HP,"mmsadh [1]; Tatlockia micdadei, + 3-HP",5.65
same,Relative mRNA level mmsadh + 3-HP,"mmsadh [1]; Thalassospira xiamenensis, + 3-HP",6.10
same,Relative mRNA level mmsadh + 3-HP,"mmsadh [1]; Variovorax paradoxus, + 3-HP",4.97
same,Relative mRNA level mmsadh + 3-HP,"mmsadh [1]; Verminephrobacter eiseniae, + 3-HP",5.14
same,Relative mRNA level mmsadh + 3-HP,"mmsadh [1]; Vibrio furnissii, + 3-HP",4.91
same,Relative mRNA level mmsadh + 3-HP,"mmsadh [1]; Xanthobacter autotrophicus, + 3-HP",5.41
same,Relative mRNA level mmsadh + 3-HP,"mmsadh [1]; Xanthomonas campestri, + 3-HP",5.09
same,increase of expression of mmsadh by 3-HP,"mmsadh [1]; in the microorganisms (Table 7), 25 mM 3-HP in nutrient medium",16 fold
same,relative size of GFP (relative to wild type in the absence of 3-HP),mmsadh [2]; O1 & O2 mutation,3
same,relative size of GFP (relative to wild type in the absence of 3-HP),mmsadh [2]; O1 mutation,3
same,relative size of GFP (relative to wild type in the absence of 3-HP),mmsadh [2]; O2 mutation,3
same,relative size of GFP (relative to wild type in the absence of 3-HP),mmsadh [2]; wildtype,55
same,relative size of GFP (relative to wild type in the absence of 3-HP),mmsadh [2]; ΔC4-LysR,3
